Data: US20220023316A1, “METHODS FOR THE TREATMENT OF DEPRESSION” (Praxis Precision Medicines, Inc., priority 2018, published 2022)

Legend:
[1] = tested on: severe major depressive disorder (MDD); assay: Open-label study in patients with severe MDD, Part A efficacy (HAM-D); format: in vivo, human
Method: The study is an open-label, study comprised of two dosing periods, Part A and Part B, during which patients were treated with an oral suspension of Compound 1. Part A was an open-label assessment of two dose levels of Compound 1 (45 mg qHS Cohort 1 and 80 mg qHS Cohort, i.e., once daily administration at bedtime) administered for 7 days inpatient followed by 7 days outpatient. PRAX-114 was administered at 4 PM on Day 1 in order to collect post-dosing PK samples that could not be collected with qHS dosing.
(§1) In Part A, participants were administered daily doses of Compound 1 (45 mg Cohort and 80 mg Cohort) at 4 PM on Day 1 and qHS on all other study days for 7 days inpatient followed by 7 days outpatient (with subsequent Cohorts receiving up to 120 mg qHS). Participants checked into the clinic on Day 1. During this period the following assessments were performed: adverse event assessments, vital signs, physical examinations, blood and urine samples for safety assessments, ECGs, C-SSRS assessments, blood samples for PK, and efficacy assessments (HAM-D, MADRS, HAM-A, CGI [CGI-S and CGI-I], PSQI, and SDQ). Baseline assessments occurred on Day 1 prior to administration of study drug. On Day 8, prior to discharge, participants were supplied with sufficient Compound 1 to complete 7 days of dosing.
Patients were administered daily doses of Compound 1 for 7 days inpatient followed by 7 days outpatient.
In the 45 mg Cohort, patients were administered once daily dose of 45 mg of Compound 1 at bedtime for 7 days inpatient followed by once daily dose of 45 mg of Compound 1 at bedtime for 7 days outpatient.
In the 80 mg Cohort, patients were administered once daily dose of 80 mg of Compound 1 at bedtime for 7 days inpatient followed by once daily dose of 80 mg of Compound 1 at bedtime for 7 days outpatient.
Part A: In Part A, HAM-D, MADRS, HAM-A, CGI-S, and CGI-I values were collected in the morning of Days 1, 2, 3, 4, 5, 6, 7, 8, 15, 21 and 28. PSQI and SDQ values will be collected on Days 1, 8, 15, 21 and 28. Part B: In Part B, HAM-D, MADRS, HAM-A, CGI-S, CGI-I, PSQI and SDQ values will be collected on the days described for Part A.
HAM-D Response was defined as a reduction from baseline of >50% in total HAM-D score. HAM-D remission was defined as a total HAM-D score of <7.
Efficacy analysis: For both parts of the clinical trial, the HAM-D total score and change from baseline values will be summarized by treatment group and time point. In addition, the change from baseline in HAM-D total score will also be analyzed using paired t-tests or similar methods. The null hypothesis of this test is that the mean difference in HAM-D total score between paired observations (i.e., pre- and post-treatment) is zero. Similar analysis methods will be used for all secondary and exploratory efficacy variables.

[2] = human, in vivo
Method: (§2) Healthy subjects aged 18 to 55 years were treated with an oral suspension of Compound 1 to study the safety, tolerability, pharmacokinetics and pharmacodynamics of Compound 1 in healthy subjects.
(§3) The study was a randomized, double-blind, placebo-controlled multiple escalating dose study comprised of 3 cohorts that each received an oral suspension. Each cohort consisted of two groups: one group treated with Compound 1 and another treated with placebo. In each cohort, the ratio of Compound 1-treated subjects to placebo-treated subjects was 3:1.
(§4) The Compound 1-treated subjects of Cohort 1 were treated with 15.0 mg of Compound 1 once per day (QD). The Compound 1-treated subjects of Cohort 2 were treated with 30.0 mg of Compound 1 QD. The Compound 1-treated subjects of Cohort 3 were treated with 60.0 mg of Compound 1 QD.
(§5) Patients in each cohort were treated with Compound 1 for 14 consecutive days, unless dosing was halted by the Safety Review Committee (SRC). The dosing of subjects in each of the cohorts was staggered with the decision to dose escalate based on SRC review of a minimum of 14 days of observation of safety and tolerability data and review of the available plasma PK data from the preceding cohort(s).
(§6) Compound 1 was administered under fasted conditions (no food or drink, except water, for at least 10 hours prior to dosing). Immediately after administration of Compound 1, the subject was be administered 240 mL water. No additional fluid intake was allowed until 1 hour after Compound 1 administration.
(§7) Cohort 1 subjects received a single 15.0 mg dose of a Compound 1 suspension on the morning of Days 1-14. Cohort 2 subjects received a single 30.0 mg dose of a Compound 1 suspension on the morning of Days 1-14. Cohort 3 subjects received a single 60.0 mg dose of a Compound 1 suspension on the morning of Days 1-14. For all cohorts, the last treatment was administered on the morning of Day 14.
(§8) PK parameters (e.g., Cmax, Tmax, T1/2, AUC, etc.) for healthy patients in each cohort was compared to assess the suitability of Compound 1 suspension for the treatment of MDD. Data were obtained from the blood plasma samples collected from each cohort according to the schedule provided.
(§9) Plasma samples were analyzed to determine Compound 1 concentrations using a validated assay method. Pharmacokinetic variables (including but not limited to Cmax, Tmax and AUC(0-last)), were calculated using non-compartmental analysis. PK parameters for Compound 1 were derived from the plasma concentration data using non-compartmental analysis with Phoenix™ WinNonlin® v 8.0 (Pharsight Corporation, USA).
(§10) Blood (Cohorts 1-3): For each cohort, blood samples were collected on Days 1, 2, 3, 4, 5, 6 and 14 at the following time points: Day 1 at pre-dose (0 hour), 0.25, 0.5, 0.75, 1, 1.5, 2, 2.5, 3, 4, 6, 8, 12, 16 h post-dose; Day 2 at pre-dose (24 h), Day 3 at pre-dose (48 h), Day 4 at pre-dose (72 h), Day 5 at pre-dose (96 h), Day 6 at pre-dose (120 h); Day 14 at pre-dose 0.25, 0.5, 0.75, 1, 1.5, 2, 2.5, 3, 4, 6, 8, 12, 16, 24, 36, 48, and 72 hours. Trough level blood samples were collected on Days 2, 3, 4, 5, 6 and 14, prior to the morning dose administrations.
(§11) Descriptive statistics were calculated for plasma and urine PK parameter and concentration data, and summarized by study day and time point. Arithmetic means, coefficient of variation (CV), standard deviation, median, minimum, and maximum values, and number of observations were calculated for all PK parameters and trough concentration data. Except for Tmax, the geometric mean, geometric standard deviation, and geometric CV were provided for all PK parameter and concentration data.

[3] = Safety and tolerability in healthy subjects (Cohorts 1-3); format: in vivo, human
Method: Blood and urine were obtained during each treatment period at designated times for PK and other analyses (see below). Standard safety assessments were measured during each treatment period.

[4] = Safety and tolerability in MDD patients, Part A; format: in vivo, human; conditions: 80 mg Cohort
Method: as §1
Adverse events (AEs) will be monitored throughout the duration of the study.

[5] = human, in vivo, 30 mg
Method: (§12) A Food Effect Cohort (Cohort 4) was conducted to assess the effect of food on the PK profile of a single dose of Compound 1 when administered to healthy subjects. The subjects of Cohort 4 were treated with 30 mg of Compound 1 QD.
(§13) Cohort 4 subjects received a single 30 mg dose of a Compound 1 suspension on Days 1 and 5. The Day 1 dose was administered after a minimum of 10 hour fasting. No additional fluid intake was allowed until 1 hour after drug administration. A standard meal was given at least 4 hours post-dose. The Day 5 dose was administered following a high-fat, high calorie meal. Participants remained at the clinical site for a total of 8 days to complete PK sampling after the second dose.
as §9
(§14) Urine (Cohort 4): No urine analysis was conducted in Cohort 4.

[6] = Multiple escalating dose PK study of oral suspension in healthy subjects (Cohorts 1-3); conditions: for t1/2: Day 14 steady state
Method: as §2, §3, §4, §5, §6, §7, §8, §9, §10, §11

[7] = Food Effect Cohort (Cohort 4) PK, single 30 mg dose fasted vs fed; conditions: healthy subjects
Method: as §12, §13, §9, §14

[8] = Cohorts 1-3, 15-60 mg QD for 14 days

Q: For `COC[C@@]1(O)CC[C@@]2(C)[C@@H](CC[C@@H]3[C@@H]2CC[C@]2(C)[C@@H](C(=O)Cn4ccnc4)CC[C@@H]32)C1` [Compound 1, 3α-Hydroxy-3β-methoxymethyl-21-(1′-imidazolyl)-5α-pregnan-20-one], which “patients meeting HAM-D Response or Remission criterion” value ([1]; 45 mg Cohort (45 mg qHS), Day 7, 13 patients) is on record?
A: The value was 11 of the 13.

Q: What about the “patients meeting HAM-D Response or Remission criteria” value ([1]; 45 mg Cohort (45 mg qHS), Day 15, 13 patients) of the same molecule?
A: The value was 8 of the 13.

Q: And the “least squares Mean Change from Baseline in HAM-D score” value ([1]; 80 mg Cohort (80 mg qHS), Day 7)?
A: The value was −20.0.

Q: What about the “least squares Mean Change from Baseline in HAM-D score” value ([1]; 80 mg Cohort (80 mg qHS), Day 15) of the same molecule?
A: The value was −16.0.

Q: And the “patients meeting HAM-D Response or Remission criteria” value ([1]; 80 mg Cohort (80 mg qHS), Day 15, 7 patients)?
A: Its value is 6 of the 7.

Q: And the “Efficacy (reduction Mean Change from Baseline in HAM-D score)” value ([1]; as monotherapy and in combination with another antidepressant)?
A: Its value is “observed”.

Q: What about the “symptoms of MDD” value ([1]; daily dose of 45 mg or 80 mg, oral suspension, MDD patients) of the same molecule?
A: Its value is “reduced symptoms of moderate to severe MDD”.

Q: And the “Efficacy (reduction Mean Change from Baseline in HAM-D score)” value ([1]; patients undergoing first course of antidepressant treatment and patients that failed previous courses)?
A: Its value is “observed”.

Q: What about the “increase in Cavg, AUCss and AUCinf with dose” value [2] of the same molecule?
A: Its value is “proportional increase”.

Q: And the “increase in Cmax and AUC parameters at steady state with dose” value [2]?
A: Its value is “approximate proportional increase”.

Q: And the “Serious Adverse Events” value [3, 8]?
A: Its value is “no Serious Adverse Events”.

Q: And the “clinically relevant vital sign, ECG, or lab abnormalities” value [3, 8]?
A: Its value is “no clinically relevant vital sign, ECG, or lab abnormalities”.

Q: What about the elevated mood ([3]; doses of 30 mg and 60 mg QD) of the same molecule?
A: Its elevated mood is “several subjects experienced elevated mood”.

Q: What about the “Adverse Event profile compared to the 45 mg Cohort” value [4] of the same molecule?
A: The value was “no change in Adverse Event profile”.

Q: What about the “tolerability of the dose” value [4] of the same molecule?
A: Its value is “well tolerated”.

Q: What about the “Cmax higher under fasting conditions compared to fed” value [5] of the same molecule?
A: The value was 1.5-1.6 times.

Q: And the “Tmax under fasting compared to fed conditions” value [5]?
A: The value was “tendency for a shorter Tmax”.

Q: What about the AUCinf ([5]; po) of the same molecule?
A: Its AUCinf is 602.3 (304.84) h · ng/mL.

Q: And the t1/2 ([6]; Cohort 1, 15.0 mg QD oral suspension, Geo Mean)?
A: Its t1/2 is 14.613 h.

Q: What about the t1/2 ([6]; Cohort 1, 15.0 mg QD oral suspension, Mean) of the same molecule?
A: The t1/2 was 14.77 ± 2.26 h.

Q: What about the t1/2 ([6]; Cohort 1, 15.0 mg QD oral suspension, Median) of the same molecule?
A: Its t1/2 is 15.26 h.

Q: What about the t1/2 ([6]; Cohort 2, 30.0 mg QD oral suspension, Geo Mean) of the same molecule?
A: Its t1/2 is 12.647 h.

Q: And the t1/2 ([6]; Cohort 2, 30.0 mg QD oral suspension, Mean)?
A: Its t1/2 is 12.70 ± 1.23 h.

Q: And the t1/2 ([6]; Cohort 2, 30.0 mg QD oral suspension, Median)?
A: The t1/2 was 12.90 h.

Q: What about the Cmax ([6]; Cohort 2, 30.0 mg QD oral suspension, fasted, Day 1, Geometric Mean) of the same molecule?
A: Its Cmax is 120.018 ng/mL.

Q: And the “accumulation factor of the dosing interval (ratio of AUCDay14/AUCDay1)” value ([6]; Cohort 3, 60.0 mg QD)?
A: Its value is 0.89.

Q: And the t1/2 ([6]; Cohort 3, 60.0 mg QD oral suspension, Geo Mean)?
A: The t1/2 was 12.164 h.

Q: And the t1/2 ([6]; Cohort 3, 60.0 mg QD oral suspension, Mean)?
A: Its t1/2 is 12.23 ± 1.32 h.

Q: What about the t1/2 ([6]; Cohort 3, 60.0 mg QD oral suspension, Median) of the same molecule?
A: The t1/2 was 12.42 h.

Q: And the t1/2 ([7]; Fed (Day 1) n =10 as head prints, single 30 mg oral suspension after high-fat, high calorie meal, Mean (SD))?
A: Its t1/2 is 11.26 (0.8641) h.

Q: What about the “t1/2 fasted versus fed” value ([7]; single 30 mg dose) of the same molecule?
A: Its value is “similar”.
